Data reported in US9388136B2, “Tert-butyl N-[2-{4-[6-amino-5-(2,4-difluorobenzoyl)-2-oxopyridin-1(2H)-yl]-3,5-difluorophenyl}ethyl]-L-alaninate or a salt, hydrate or solvate thereof” (Chroma Therapeutics Ltd., priority 2012, dated 2016).
Where two headings read alike, the source gives them in different places.

Legend:
p38 MAP Kinase a = p38 MAP Kinase a (Homo sapiens (Human), UniProt Q16539); assay: p38 MAP kinase enzyme assay (radiometric filter-binding); format: biochemical
Description: The ability of compounds to inhibit p38 MAP a Kinase activity was measured in an assay performed by Upstate (Dundee UK). In a final reaction volume of 25 μL, p38 MAP Kinase a (5-10 mU) is incubated with 25 mM Tris pH 7.5, 0.002 mMEGTA, 0.33 mg/mL myelin basic protein, 10 mM MgAcetate and [g-33p-ATP] (specific activity approx. 500 cpm/pmol, concentration as required). The reaction is initiated by the addition of the MgATP mix. After incubation for 40 minutes at room temperature, the reaction is stopped by the addition of 5 μL of a 3% phosphoric acid solution. 10 μL of the reaction is then spotted onto a P30 filtermat and washed three times for 5 minutes in 75 mM phosphoric acid and once in methanol prior to drying and scintillation counting.
Duplicate data points are generated from a 1/3 log dilution series of a stock solution in DMSO. Nine dilutions steps are made from a top concentration of 10 μM, and a ‘no compound’ blank is included. The standard radiometric filter-binding assay is performed at an ATP concentration at, or close to, the Km. Data from scintillation counts are collected and subjected to free-fit analysis by Prism software.

THP-1 cells = assay: LPS-stimulation of THP-1 cells, TNF-α levels by ELISA; format: cell-based; conditions: LPS 1 μg/ml, 6 hrs, read-out: C—ester TNF-alpha inhibition (THP-1 cells), IC50
Description: THP-1 cells were plated in 100 μl at a density of 4×10^4 cells/well in V-bottomed 96 well tissue culture treated plates and incubated at 37° C. in 5% CO2 for 16 hrs. 2 hrs after the addition of the inhibitor in 100 μl of tissue culture media, the cells were stimulated with LPS (E coli strain 005:B5, Sigma) at a final concentration of 1 μg/ml and incubated at 37° C. in 5% CO2 for 6 hrs. TNF-α levels were measured from cell-free supernatants by sandwich ELISA (R&D Systems #QTA00B).

human whole blood = assay: LPS-stimulation of human whole blood, TNF-α levels by ELISA; format: cell-based; conditions: for IC50: LPS 100 ng/ml, 6 hrs, read-out: D—ester TNF-alpha inhibition (human whole blood), IC50
Description: Whole blood was taken by venous puncture using heparinised vacutainers (Becton Dickinson) and diluted in an equal volume of RPMI1640 tissue culture media (Sigma). 100 μl was plated in V-bottomed 96 well tissue culture treated plates. 2 hrs after the addition of the inhibitor in 100 μl of RPMI1640 media, the blood was stimulated with LPS (E coli strain 005:B5, Sigma) at a final concentration of 100 ng/ml and incubated at 37° C. in 5% CO2 for 6 hrs. TNF-α levels were measured from cell-free supernatants by sandwich ELISA (R&D Systems #QTA00B).

[1] = corresponding acid (hydrolysis product of the named ester) tested, read-out: B—acid enzyme assay (p38 kinase A (invitrogen)), IC50
[2] = ester tested, read-out: A—ester enzyme assay (p38 kinase A (invitrogen)), IC50

Chain of p38 MAP Kinase a (Q16539 whole entry): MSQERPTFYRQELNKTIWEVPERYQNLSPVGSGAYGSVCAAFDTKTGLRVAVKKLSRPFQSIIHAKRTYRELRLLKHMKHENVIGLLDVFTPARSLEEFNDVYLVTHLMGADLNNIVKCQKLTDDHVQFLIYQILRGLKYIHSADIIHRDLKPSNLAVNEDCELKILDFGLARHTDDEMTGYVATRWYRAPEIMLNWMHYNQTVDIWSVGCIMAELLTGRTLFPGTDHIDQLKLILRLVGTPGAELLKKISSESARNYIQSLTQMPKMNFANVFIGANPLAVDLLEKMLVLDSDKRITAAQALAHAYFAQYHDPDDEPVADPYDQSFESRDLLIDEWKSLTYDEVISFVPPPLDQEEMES

SMILES | IC50 (p38 MAP Kinase a; [1]) [nM] | IC50 (p38 MAP Kinase a; [2]) [nM] | IC50 (THP-1 cells; Homo sapiens, THP-1) [nM] | IC50 (human whole blood; Homo sapiens) [nM] | IC50 (THP-1 cells) [nM] | IC50 (human whole blood) [nM] | D—ester TNF-alpha inhibition (human whole blood), % at single concentration (human whole blood; @ 10 μm) [% @ 10 μm]
CC(C)[C@H](NCCc1cc(F)c(-n2c(N)c(C(=O)c3ccc(F)cc3F)ccc2=O)c(F)c1)C(=O)OC1CCCC1 [Cyclopentyl N-[2-(4-{6-amino-5-[(2,4-difluoro-phenyl)carbonyl]-2-oxopyridin-1(2H)-yl}-3,5 difluorophenyl)ethyl]-L-valinate] |  | 22 | 8.4 | 5180 |  |  | 
Nc1c(C(=O)c2ccc(F)cc2F)ccc(=O)n1-c1c(F)cc(CCN[C@@H](C(=O)OC2CCCC2)c2ccccc2)cc1F [Cyclopentyl (2R)-[(2-{4-[6-amino-5-(2,4-difluoro-benzoyl)-2-oxopyridin-1(2H)-yl]-3,5-difluorophenyl}ethyl)amino] (phenyl)acetate] |  | 47 |  |  | 21 | 4110 | 
CCOC(=O)[C@H](CC(C)C)NCCCOc1cc(F)c(-n2c(N)c(C(=O)c3ccc(F)cc3)ccc2=O)c(F)c1 [Ethyl N-(3-{4-[6-amino-5-(4-fluoro-benzoyl)-2-oxopyridin-1(2H)-yl]-3,5-difluorophenoxy}propyl)-L-leucinate] |  | 28 | 8.6 |  |  |  | 
CC(C)(C)OC[C@H](NCCc1cc(F)c(-n2c(N)c(C(=O)c3ccc(F)cc3F)ccc2=O)c(F)c1)C(=O)OC1CCCC1 [Cyclopentyl N-(2-{4-[6-amino-5-(2,4-difluoro-benzoyl)-2-oxopyridin-1(2H)-yl]-3,5-difluorophenyl}ethyl)-O-tert-butyl-L-serinate] | 1 | 57 | 5.7 | 1300 |  |  | 
Nc1c(C(=O)c2ccc(F)cc2F)ccc(=O)n1-c1c(F)cc(OCCCN[C@@H](C(=O)OC2CCCC2)c2ccccc2)cc1F [Cyclopentyl (2R)-[(3-{4-[6-amino-5-(2,4-difluorobenzoyl)-2-oxopyridin-1(2H)-yl]-3,5-difluorophenoxy}propyl)amino] (phenyl)acetate] |  |  | 6 |  |  |  | 
CC(C)C[C@H](NCCc1ccc(-n2c(N)c(C(=O)c3ccc(F)cc3)ccc2=O)cc1)C(=O)OC(C)(C)C [tert-Butyl N-[2-(4-{6-amino-5-[(4-fluoro-phenyl)carbonyl]-2-oxopyridin-1(2H)-yl}phenyl)ethyl]-L-leucinate] | 118 | 724 | 19 | 947 |  |  | 
Nc1c(C(=O)c2ccc(F)cc2)ccc(=O)n1-c1c(F)cc(OCCCN[C@H](C(=O)OC2CCCC2)c2ccccc2)cc1F [Cyclopentyl (S)-(3-{4-[6-Amino-5-(4-fluorobenzoyl)-2-oxo-2H-pyridin-1-yl]-3,5-difluoro-phenoxy}propylamino) phenylacetate] |  |  | 38 |  |  |  | 
CC(C)C[C@@H](NCCc1cc(F)c(-n2c(N)c(C(=O)c3ccc(F)cc3F)ccc2=O)c(F)c1)C(=O)OC(C)(C)C [tert-butyl N-(2-{4-[6-amino-5-(2,4-difluoro-benzoyl)-2-oxopyridin-1(2H)-yl]-3,5-difluoro-phenyl}ethyl)-D-leucinate] | 2 | 167 | 81 |  |  |  | 0
CC(C)C[C@H](NCCCOc1cc(F)c(-n2c(N)c(C(=O)c3ccc(F)cc3F)ccc2=O)c(F)c1)C(=O)OC1CCCC1 [Cyclopentyl (S)-2-(3-{4-[6-Amino-5-(2,4-difluorobenzoyl)-2-oxo-2H-pyridin-1-yl]-3,5-difluoro-phenoxy}propyl-amino)-4-methyl pentanoate] |  |  | 10.7 | 594 |  |  | 
NCC[C@H](NCCCOc1cc(F)c(-n2c(N)c(C(=O)c3ccc(F)cc3F)ccc2=O)c(F)c1)C(=O)OC1CCCC1 [Cyclopentyl (2S)-4-amino-2-[(3-{4-[6-amino-5-(2,4-difluoro-benzoyl)-2-oxopyridin-1(2H)-yl]-3,5-difluoro-phenoxy}propyl)amino]butanoate] | 5 | 1 | 22 | 479 |  |  | 
CC(C)C[C@H](NCCCCCOc1cc(F)c(-n2c(N)c(C(=O)c3ccc(F)cc3F)ccc2=O)c(F)c1)C(=O)OC(C)(C)C [tert-Butyl N-(5-{4-[6-amino-5-(2,4-difluoro-benzoyl)-2-oxopyridin-1(2H)-yl]-3,5-difluorophenoxy}pentyl)-L-leucinate] | 2 | 73 | 29 | 1250 |  |  | 
CC(C)C[C@H](NCCCOc1cc(F)c(-n2c(N)c(C(=O)c3ccc(F)cc3F)ccc2=O)c(F)c1)C(=O)OC(C)(C)C [tert-Butyl (S)-2-(3-{4-[6-Amino-5-(2,4-difluorobenzoyl)-2-oxo-2H-pyridin-1-yl]-3,5-difluoro-phenoxy}propyl-amino)-4-methyl pentanoate] |  |  | 76.1 | 4270 |  |  | 
CC(C)(C)OC[C@H](NCCc1cc(F)c(-n2c(N)c(C(=O)c3ccc(F)cc3F)ccc2=O)c(F)c1)C(=O)OC(C)(C)C [tert-butyl N-(2-{4-[6-amino-5-(2,4-difluoro-benzoyl)-2-oxopyridin-1(2H)-yl]-3,5-difluorophenyl}ethyl)-O-tert-butyl-L-serinate] | 1 | 72 | 83 |  |  |  | 

Continued by falling IC50 (THP-1 cells; Homo sapiens, THP-1), values first:

IC50 (p38 MAP Kinase a; [1]) [nM] | IC50 (p38 MAP Kinase a; [2]) [nM] | IC50 (THP-1 cells; Homo sapiens, THP-1) [nM] | IC50 (human whole blood; Homo sapiens) [nM] | IC50 (THP-1 cells) [nM] | IC50 (human whole blood) [nM] | SMILES | D—ester TNF-alpha inhibition (human whole blood), % at single concentration (human whole blood; @ 10 μm) [% @ 10 μm]
 |  | 5.3 | 508 |  |  | Nc1c(C(=O)c2ccc(F)cc2F)ccc(=O)n1-c1c(F)cc(OCCCN[C@H](C(=O)OC2CCCC2)c2ccccc2)cc1F [Cyclopentyl (S)-(3-{4-[6-Amino-5-(2,4-difluorobenzoyl)-2-oxo-2H-pyridin-1-yl]-3,5-difluoro-phenoxy}propylamino) phenyl acetate] | 
2 | 81 | 4.2 | 179 |  |  | CC(C)C[C@H](NCCCCCOc1cc(F)c(-n2c(N)c(C(=O)c3ccc(F)cc3F)ccc2=O)c(F)c1)C(=O)OC1CCCC1 [Cyclopentyl N-(5-{4-[6-amino-5-(2,4-difluorobenzoyl)-2-oxopyridin-1(2H)-yl]-3,5 - difluorophenoxy}pentyl)-L-leucinate] | 
58 | 58 | 2.8 | 195 |  |  | C[C@H](NCCc1ccc(-n2c(N)c(C(=O)c3ccc(F)cc3F)ccc2=O)cc1)C(=O)OC(C)(C)C [tert-butyl N-[2-(4-{6-amino-5-[(2,4-difluoro-phenyl)carbonyl]-2-oxopyridin-1(2H)-yl}phenyl)ethyl]-L-alaninate] | 
 |  | 2 | 779 |  |  | CC(C)(C)OC(=O)[C@@H](NCCc1cc(F)c(-n2c(N)c(C(=O)c3ccc(F)cc3F)ccc2=O)c(F)c1)c1ccccc1 [tert-butyl (2S)-[(2-{4-[6-amino-5-(2,4-difluoro-benzoyl)-2-oxopyridin-1(2H)-yl]-3,5-difluorophenyl}ethyl)amino] (phenyl)acetate] | 
56 | 68 | 1.8 | 1200 |  |  | C[C@@H](O)[C@H](NCCc1ccc(-n2c(N)c(C(=O)c3ccc(F)cc3F)ccc2=O)cc1)C(=O)OC1CCCC1 [Cyclopentyl N-[2-(4-{6-amino-5-[(2,4-difluoro-phenyl)carbonyl]-2-oxopyridin-1(2H)-yl}phenyl)ethyl]-L-threoninate] | 
1 | 12 | 0.9 | 190 |  |  | CC(C)C[C@H](NCCc1cc(F)c(-n2c(N)c(C(=O)c3ccc(F)cc3)ccc2=O)c(F)c1)C(=O)OC1CCCC1 [Cyclopentyl N-(2-{4-[6-amino-5-(4-fluoro-benzoyl)-2-oxopyridin-1(2H)-yl]-3,5-difluorophenyl}ethyl)-L-leucinate] | 
1 | 65 | 0.5 | 148 |  |  | Nc1c(C(=O)c2ccc(F)cc2F)ccc(=O)n1-c1c(F)cc(CCN[C@H](C(=O)OC2CCCC2)c2ccccc2)cc1F [Cyclopentyl (2S)-[(2-{4-[6-amino-5-(2,4-difluorobenzoyl)-2-oxopyridin-1(2H)-yl]-3,5-difluorophenyl}ethyl)amino] (phenyl)acetate] | 
 |  | 0.4 | 935 |  |  | CC(C)C[C@H](NCCCOc1cc(F)c(-n2c(N)c(C(=O)c3ccc(F)cc3F)ccc2=O)c(F)c1)C(=O)OCCN1CCOCC1 [2-Morpholin-4-ylethyl N-(3-{4-[6-amino-5-(2,4-difluorobenzoyl)-2-oxopyridin-1(2H)-yl]-3,5-difluoro-phenoxy}propyl)-L-leucinate] | 
